From patent publication US20140343014A1, “COMBINATION OF A CERTAIN DPP-4 INHIBITOR AND VOGLIBOSE” (BOEHRINGER INGELHEIM INTERNATIONAL GMBH, priority 2013, published 2014)
Entries after “also recorded” stand apart in the source; their conditions may differ.

Experiment: Pharmacokinetics of BI 1356 in patients with type 2 diabetes, multiple oral doses once daily for 12 days
Conditions: therapeutic oral dose levels; listed as BI 1356

**Q.** With `CC#CCn1c(N2CCC[C@@H](N)C2)nc2c1c(=O)n(Cc1nc(C)c3ccccc3n1)c(=O)n2C` [linagliptin] as the compound, how does the route of excretion read?
**A.** The route of excretion was “mainly excreted via the liver; also recorded: primarily excreted unchanged via the bile”.
